For 6 compounds, IC50 results are on record in US20060111366A1, “Pharmaceutical use of substituted amides” (Novo Nordisk A/S, priority 2003, published 2006).

This test concerns the target T1, h-11βHSD1 (Homo sapiens, UniProt P28845).
T1 construct: made in house
Kind of test: 11βHSD1 enzyme assay (scintillation proximity assay, conversion of 3H-cortisone to 3H-cortisol). The class given is biochemical. The conditions noted are these: extract of yeast transformed with h-11βHSD1; 120 nM 3H-cortisone, 4 mM β-NADPH, 60 min at 30° C. As to the method: ^3H-cortisone and anti-rabbit Ig coated scintillation proximity assay (SPA) beads were purchased from Amersham Pharmacia Biotech, β-NADPH was from Sigma and rabbit anticortisol antibodies were from Fitzgerald. An extract of yeast transformed with h-11βHSD1 (Hult et al., FEBS Lett., 441, 25 (1998)) was used as the source of enzyme. The test compounds were dissolved in DMSO (10 mM). All dilutions were performed in a buffer containing 50 mM TRIS-HCl (Sigma Chemical Co), 4 mM EDTA (Sigma Chemical Co), 0.1% BSA (Sigma Chemical Co), 0.01% Tween-20 (Sigma Chemical Co) and 0.005% bacitracin (Novo Nordisk A/S), pH=7.4. Optiplate 96 wells plates were supplied by Packard. The amount of ^3H-cortisol bound to the SPA beads was measured on TopCount NXT, Packard.
h-11βHSD1, 120 nM ^3H-cortisone, 4 mM β-NADPH, antibody (1:200), serial dilutions of test compound and SPA particles (2 mg/well) were added to the wells. The reaction was initiated by mixing the different components and was allowed to proceed under shaking for 60 min at 30° C. […] Data was analysed using GraphPad Prism software.

T1 sequence (P28845 whole entry): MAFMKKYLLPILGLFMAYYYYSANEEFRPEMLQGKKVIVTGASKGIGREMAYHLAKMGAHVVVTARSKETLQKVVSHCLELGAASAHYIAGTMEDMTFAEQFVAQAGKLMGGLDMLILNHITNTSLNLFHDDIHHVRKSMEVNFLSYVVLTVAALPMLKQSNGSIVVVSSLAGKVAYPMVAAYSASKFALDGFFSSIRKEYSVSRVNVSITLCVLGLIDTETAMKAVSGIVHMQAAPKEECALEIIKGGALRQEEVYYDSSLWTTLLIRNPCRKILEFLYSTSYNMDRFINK

As to `CN(C(=O)c1ccc2[nH]cnc2c1)C1CCCCC1` [(V) 1, 1H-Benzoimidazole-5-carboxylic acid cyclohexyl-methyl-amide], the IC50 turned out to be 45 nM.
The figure for `CN1CCC(N(C)C(=O)CCCOc2ccccc2)CC1` [(I) 2, N-Methyl-N-(1-methyl-piperidin-4-yl)-4-Phenoxy-butyramide] is 120000 nM; for `CCCc1c(C(=O)N(C)C2CCCCC2)cnn1-c1ccc(Cl)cc1` [(III) 1, 1-(4-Chloro-phenyl)-5-propyl-1H-pyrazole-4-carboxylic acid cyclohexyl-methyl-amide] it is 40 nM; for `CN(C(=O)c1ccc2cc[nH]c2c1)C1CCCCC1` [(VII) 2, 1H-Indole-6-carboxylic acid cyclohexyl-methyl-amide] it is 118 nM.
In the case of `CN(C(=O)CCCOc1ccc2c(c1)OCO2)C1CCCCC1` [(I) 1, 4-(Benzo[1,3]dioxol-5-yloxy)-N-cyclohexyl-N-methyl-butyramide] it was 560 nM.
Consider `CC1Oc2c(C(=O)N(C)C3CCCCC3)cccc2C1C` (stereo not drawn) [(VI) 1, 2,3-Dimethyl-2,3-dihydro-benzofuran-7-carboxylic acid cyclohexyl-methyl-amide], for which half-maximal inhibition (IC50) required 6 nM.
